Source: patent US20230293629A1, “METHODS FOR ATTENUATING RELEASE OF INFLAMMATORY MEDIATORS AND PEPTIDES USEFUL THEREIN” (BIOMARCK PHARMACEUTICALS LTD., priority 2006, published 2023)
“And” between values parts separate entries of the source, which are not always exact repeats. Identical values can stand only once. Where a SMILES comes first, the peptide text is derived from it. Where no end group is shown, it is not given here. The star is where a group is joined. Myristoyl = CCCCCCCCCCCCCC(=O)*

Assays:
[1] = system: ozone-induced neutrophil migration; assay: Mouse model of ozone-induced COPD: neutrophil migration, IL-6, KC, IFNγ in BAL fluid; format: in vivo, mice; conditions: for Concentration of IFNγ in BAL fluid / Concentration of KC in BAL fluid / Concentration of IL-6 in BAL fluid: 25 μL 1.0 mM peptide intratracheal 30 min before 2 h ozone; for Concentration of IFNγ in BAL fluid: PBS+ozone 8.6, forced air 5.0; for Concentration of KC in BAL fluid: PBS+ozone 466.6, forced air 36.3; for Concentration of IL-6 in BAL fluid: PBS+ozone 1041.3, forced air 43.2
Method: Ten-week-old Balb/C female mice were obtained from Charles River laboratories and housed under NIH guidelines in groups of 5 per cage. The animals received standard rodent diet and filtered water ad libitum. Three treatment groups of mice, 5 animals in each group, were each anesthetized by intraperitoneal injection of Ketamine (100 mg/kg) and Xylazine (20 mg/kg) and then pretreated by intratracheal administration with 25 μL of either PBS alone, or a solution of 1.0 mM MANS peptide in PBS, or a solution of a 1.0 mM of an acetylated MANS-fragment-peptide Ac-[…] designated as acetylated SEQ ID NO: 106 in PBS. After 30 minutes, the animals were then placed in the appropriate custom-made chamber for ozone or forced air exposures. The animals were exposed to ozone for 2 hours (at ozone concentrations of 1-10 ppm by a slightly modified method described by Haddad et al, 1995. (Haddad E-B, Salmon M, Sun J, Liu S, Das A, Adcock I, Barnes P J, and Chung K F, FEBS Letters, 363:285-288, 1995). The ozone was generated using an ozone generator apparatus model OL80F/B from OzoneLab, Burton, British Columbia, Canada. Ozone concentration was continuously monitored using a Teledyne Photometric 03 Analyzer (model 400E, Teledyne Instruments, City of Industry, CA). Two additional groups of mice, each without any pretreatment, were either exposed to ozone under the same conditions or exposed to forced air under conditions similar to the ozone treatment group but absent ozone. After exposure, the animals were sacrificed by exsanguination and the lungs were serially lavaged 2 times with 1.0 mL aliquots of PBS. The collected bronchoalveolar lavage (BAL) fluid was centrifuged to remove the cells for subsequent counting and differential analysis. Recovered lavage fluid was used for protein and additional analysis of IL-6, IFNγ, and KC (murine IL-8 analog) by ELISA assay (assay kits obtained from R&D Systems, Minneapolis, MN).
The percent inhibition of neutrophil migration into the BAL fluid as a function of treatment groups and relative to a control group treated with PBS alone are provided in the table.

NK-92 cells = assay: PMA-stimulated granzyme release from NK-92 cells (BLT hydrolysis); format: cell-based, human; conditions: 50 μM test peptide, two hour incubation with 100 nM PMA
Method: Three types of human leukocyte cell lines, specifically the promyelocytic cell line HL-60 clone 15, the monocytic cell line U937, and the lymphocyte natural killer cell line NK-92 were purchased from American Type Culture Collection (ATCC; Rockville, MD). HL-60 clone 15 cells (ATCC CRL-1964) were maintained in medium consisting of RPMI 1640 with L-glutamine supplemented with 10% heat-inactivated fetal bovine serum (Gibco; Invitrogen Co., Carlsbad, CA), 50 IU/ml penicillin, 50 μg/mL streptomycin, and 25 mM HEPES buffer, pH 7.8, at 37° C. in an atmosphere containing 5% CO2. […] Viability of cells harvested for experiments was assessed by trypan blue exclusion and populations of cells with viability >95% were used. […]
For measurements of released MPO from neutrophils and released lysozyme from U937 cells, we were able to quantify secretion by using as standards human MPO and […], respectively. For released EPO from HL-60 clone 15 cells and for released granzyme from NK-92 cells, no standards were available to use for quantification. […] To measure intracellular EPO in HL-60 clone 15 cells and intracellular granzyme in NK-92 cells, appropriate aliquots of 0.1% triton X-100-lysed cells were taken for quantification of intracellular granule proteins as described below. All treatments were expressed as percentage of control to minimize variability between cultures. […]

[2] = after ozone exposure, vs. PBS control, listed as acetylated SEQ ID NO:106

## Ac-GAQFSKTAAK [Ac-GAQFSKTAAK]
[1]
  Concentration of IFNγ in BAL fluid: approximately 3.6 pg/mL
  Concentration of KC in BAL fluid: approximately 159.7 pg/mL
  Concentration of IL-6 in BAL fluid: approximately 130.4 pg/mL
[1]; after ozone exposure
  effect on interferon-γ levels: little effect
[1]; [2]
  diminished IL-6 levels / inhibition of IL-6 levels in BAL fluid: 91.3%±15% and ~91%
  diminished KC concentrations / inhibition of KC levels in BAL fluid: 71.3%±10% and ~71%
[1]; vs. PBS control
  reduced neutrophil cell infiltration in the BAL fluid after ozone exposure: 81%±10%

## CCCCCCCCCCCCCC(=O)NCC(=O)N[C@H](C(=O)N[C@@H](C)C(=O)N1CCC[C@H]1C(=O)N[C@@H](C)C(=O)N[C@@H](C)C(=O)N[C@@H](CCC(=O)O)C(=O)NCC(=O)N[C@@H](C)C(=O)NCC(=O)N[C@@H](C)C(=O)N[C@@H](CCC(=O)O)C(=O)N[C@H](C(=O)N[C@@H](CCCCN)C(=O)N[C@@H](CCCNC(=N)N)C(=O)N[C@@H](C)C(=O)N[C@@H](CO)C(=O)N[C@@H](C)C(=O)N[C@@H](CCC(=O)O)C(=O)N[C@@H](C)C(=O)N[C@@H](CCCCN)C(=O)N[C@@H](CCC(N)=O)C(=O)N[C@@H](C)C(=O)N[C@@H](Cc1ccccc1)C(=O)O)C(C)C)[C@@H](C)O [RNS, reference compound] (Myristoyl-GTAPAAEGAGAEVKRASAEAKQAF-OH; C-terminus assumed)
NK-92 cells
  % Inhibition Granzyme: 29.5%

## CCCCCCCCCCCCCC(=O)NCC(=O)N[C@@H](C)C(=O)N[C@@H](CCC(N)=O)C(=O)N[C@@H](Cc1ccccc1)C(=O)N[C@@H](CO)C(=O)N[C@@H](CCCCN)C(=O)N[C@H](C(=O)N[C@@H](C)C(=O)N[C@@H](C)C(=O)N[C@@H](CCCCN)C(=O)NCC(=O)N[C@@H](CCC(=O)O)C(=O)N[C@@H](C)C(=O)N[C@@H](C)C(=O)N[C@@H](C)C(=O)N[C@@H](CCC(=O)O)C(=O)N[C@@H](CCCNC(=N)N)C(=O)N1CCC[C@H]1C(=O)NCC(=O)N[C@@H](CCC(=O)O)C(=O)N[C@@H](C)C(=O)N[C@@H](C)C(=O)N[C@H](C(=O)N[C@@H](C)C(=O)O)C(C)C)[C@@H](C)O [MANS] (Myristoyl-GAQFSKTAAKGEAAAERPGEAAVA-OH; C-terminus assumed)
[1]
  Concentration of IFNγ in BAL fluid: approximately 7.4 pg/mL
  Concentration of KC in BAL fluid: approximately 183.6 pg/mL
  Concentration of IL-6 in BAL fluid: approximately 364.5 pg/mL
[1]; Balb/C mice, intratracheal pretreatment with 25 μL of 1.0 mM peptide in PBS 30 minutes before 2 hours ozone exposure, relative to control group treated with PBS alone
  % Inhibition of neutrophil migration into BAL fluid: 93.0%
[1]; after ozone exposure
  effect on interferon-γ levels: little effect
[1]; vs. PBS control
  reduced neutrophil cell infiltration in the BAL fluid after ozone exposure: 93%±10%
NK-92 cells
  % Inhibition Granzyme: 76.0%
